Paper PMC10892419, “UHPLC-MS/MS Assay for Quantification of Legubicin, a Novel Doxorubicin-Based Legumain-Activated Prodrug, and Its Application to Pharmacokinetic and Tissue Distribution Studies” (Molecules, 2024)

Assays:
[1] = Multiple-dose pharmacokinetic study of legubicin, weekly i.v. for 4 weeks; details: free metabolite in plasma, weekly i.v. legubicin 5 mg/kg; for Tmax: median [min, max]; for AUClast / Cmax: n = 3
Description: The mixture was vortexed for 3 min, and then centrifuged at 22,000× g at 4 °C for 10 min. A final analysis was conducted by injecting 5 µL supernatant into a UHPLC-MS/MS system. Mouse plasma samples were treated in the same way as the rat plasma samples, except for protein precipitation, with 200 µL of 5 pmol/mL IS working solution and injection of 2 µL of supernatant for analysis.
(1) For the hydrolysis process, an aliquot of 25 µL of rat/mouse plasma was transferred into an Eppendorf tube, and then 50 µL of enzyme digestion buffer and 25 µL of legumain enzyme were placed into the tube. The mixture was vortexed for 1 min, and then incubated in a water bath for 24 h at 37 °C for enzymatic hydrolysis. (2) For the protein precipitation process, 1000 µL of IS working solution (5 pmol/mL and 50 pmol/mL for rat and mouse plasmas, respectively) was added to the enzymatic-hydrolysis solution. Then, the sample was vortexed for 3 min and centrifuged at 22,000× g for 10 min at 4 °C. Analyses were performed on the 3 µL aliquot of the solution used in the UHPLC-MS/MS system.
Twenty-four rats, inclusive of both sexes, were randomly distributed into four groups. Groups 1, 2, and 3 were single-dose groups, among which the subjects received legubicin via tail intravenous injection (a dose of 1.5, 5, or 15 mg/kg; i.e., 1.36, 4.52, or 13.6 µmol/kg). The fourth group was utilized for a multi-dose study at 5 mg/kg (once-weekly for 4 consecutive weeks). Blood samples of approximately 150 µL were taken from the jugular vein at 0 h (pre-dosing) and at 0.167 h (10 min), 0.5 h, 1 h, 2 h, 4 h, 8 h, 24 h, 48 h, and 72 h post-dosing in the single-dose groups. Samples were also obtained on days 1 and 22 for the multiple-dose group in the same way as for the single-dose groups. However, on days 8 and 15, samples were taken only before and 10 min after administration. The K2EDTA quantities containing blood samples were centrifuged (4 °C, 4000 rpm, 10 min) to collect plasma samples, which were separated into EP tubes and kept at −80 °C until further assay.
The analysis software (Version 1.5.2, AB Sciex, Vaughan, ON, Canada) was applied to data acquisition and quantification. Pharmacokinetic parameters were calculated with WinNonlin Phoenix (v6.4, Pharsight, Mountain View, CA, USA) with the noncompartmental method, and were presented as mean ± SD (%CV). The “Best fit” strategy in the WinNonlin Phoenix was used for the calculation of elimination half-life and the selection of the elimination phase. Graphs were plotted by GraphPad Software (GraphPad Prism 8.0.2; GraphPad Software, Inc., La Jolla, CA, USA).

[2] = target: T1, legumain (Homo sapiens, UniProt Q99538); test: Stability of Leu-DOX in the legumain enzymatic system; assay type: in vitro ADME; details: plasma samples spiked with Leu-DOX, enzymatic digestion procedure (24 h, 37 °C), n = 3
T1 sequence (Q99538 18-433): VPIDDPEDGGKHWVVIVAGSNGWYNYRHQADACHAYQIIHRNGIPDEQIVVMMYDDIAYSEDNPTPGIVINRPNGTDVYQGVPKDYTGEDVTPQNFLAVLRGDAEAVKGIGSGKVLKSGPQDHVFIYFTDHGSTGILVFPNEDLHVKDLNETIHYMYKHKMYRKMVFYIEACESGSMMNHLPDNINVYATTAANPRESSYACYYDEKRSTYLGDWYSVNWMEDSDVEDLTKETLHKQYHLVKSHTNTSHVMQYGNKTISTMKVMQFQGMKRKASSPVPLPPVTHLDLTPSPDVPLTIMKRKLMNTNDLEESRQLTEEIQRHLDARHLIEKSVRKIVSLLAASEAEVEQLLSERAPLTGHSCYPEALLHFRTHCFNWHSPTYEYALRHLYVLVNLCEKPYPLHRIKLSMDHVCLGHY
Description: The specific liquid-phase conditions are shown as follows. Column: Agilent Eclipse Plus 4.6 × 250 mm, 5 µm; mobile phase A: 0.1% trifluoroacetic acid in water; mobile phase B: acetonitrile. Flow rate: 1.0 mL/min; HPLC: Waters 2695; detector: Waters 2475 detector (ex470/em600); column temperature: 30 °C; injection volume: 10 µL; run time: 30 min; needle wash solvent: 50% acetonitrile in water; gradient elution: starting 20% B, increasing from 20% to 45% B in 15 min, increasing from 45% to 80% B in 15 to 20 min, maintained for 5 min, then decreasing to 20% B in 0.1 min, and continuing until the end of 30 min. (b) Kinetics of Leu-Dox release from legubicin (black) and legubicin–albumin conjugate (blue) in the presence of legumain (n = 4). (c) Stability of Leu-Dox in this enzymatic system (n = 3).
The assessment of Leu-DOX stability in the aforementioned enzymatic systems warrants careful consideration. Consequently, plasma samples containing Leu-DOX were intentionally supplemented to assess the potential impacts of these methods on the precise determination of the enzymatic digestion of the legubicin plasma protein complex, which is utilized for determining the total Leu-DOX post-digestion. […]

[3] = in vivo; cited from earlier work
[4] = female SD rats, multiple dose (day 22)
[5] = female SD rats, single dose (day 1)
[6] = male SD rats, multiple dose (day 22)
[7] = male SD rats, single dose (day 1)

For `COc1cccc2c1C(=O)c1c(O)c3c(c(O)c1C2=O)C[C@@](O)(C(=O)CO)C[C@@H]3O[C@H]1C[C@H](NC(=O)[C@@H](N)CC(C)C)[C@H](O)[C@H](C)O1` [Leu-DOX, N-L-leucyl-doxorubicin], the Tmax [1, 4] was 0.167 [0.167, 0.167] h, the AUClast [1, 4] was 0.0604 ± 0.00643 µM·h and the Cmax [1, 4] was 80.3 ± 8.57 nM. For the same molecule, the Tmax [1, 5] was 0.167 [0.167, 0.167] h, the AUClast [1, 5] was 0.0387 ± 0.00104 µM·h and the Cmax [1, 5] was 60.0 ± 6.89 nM. For the same molecule, the Tmax [1, 6] was 0.167 [0.167, 0.167] h, the AUClast [1, 6] was 0.112 ± 0.014 µM·h and the Cmax [1, 6] was 141 ± 22.0 nM. The Tmax [1, 7] was 0.167 [0.167, 0.167] h, the AUClast [1, 7] was 0.081 ± 0.0133 µM·h and the Cmax [1, 7] was 111 ± 13.5 nM. For the same molecule, the “stability in the legumain enzymatic digestion system” value [2] was “remained unaltered throughout the enzymatic digestion procedure”.
In the case of `COc1cccc2c1C(=O)c1c(O)c3c(c(O)c1C2=O)C[C@@](O)(C(=O)CO)C[C@@H]3O[C@H]1C[C@H](N)[C@H](O)[C@H](C)O1` [DOX, Doxorubicin], the Tmax [1, 4] is reported as 0.167 [0.167, 0.167] h, the AUClast [1, 4] is reported as 0.174 ± 0.0367 µM·h and the Cmax [1, 4] is reported as 4.70 ± 0.534 nM. The Tmax [1, 5] was 0.167 [0.167, 0.167] h, the AUClast [1, 5] was 0.0945 ± 0.0447 µM·h and the Cmax [1, 5] was 3.10 ± 0.367 nM. For the same molecule, the Tmax [1, 6] was 0.167 [0.167, 0.167] h, the AUClast [1, 6] was 0.207 ± 0.0112 µM·h and the Cmax [1, 6] was 8.58 ± 0.616 nM. The Tmax [1, 7] was 0.167 [0.167, 0.167] h, the AUClast [1, 7] was 0.123 ± 0.0441 µM·h and the Cmax [1, 7] was 6.01 ± 0.430 nM. For the same molecule, the Vz [3] was 72 L/kg and the “clearance (CL)” value [3] was “approximately 2553 mL/h/kg”.
